Experimental data reported in patent publication US20110039762A1, “TARGETED ANTIMICROBIAL MOIETIES” (C3 JIAN, INC., priority 2009, published 2011).
Entries after “also recorded” stand apart in the source; their conditions may differ. Square brackets hold non-standard residues; d marks the D form. Ends that are not written are not given here. dOrn = NCCC[C@@H](N)C(=O)O

Tested on: microorganisms (e.g., bacteria, yeasts, fungi)
Assay: Targeting peptide binding to target microorganisms (Table 3)
Details: microorganism the targeting peptide binds; binding in aqueous buffers varied by peptide solubility, preferably 1x PBS

| Substance | Target(s) |
| --- | --- |
| PF-018 (YYKTYFKEV; Peptide with targeting and/or antimicrobial activity) | E. coli; also recorded: C. jeikeium |
| 1T-154 (YFSFLEIVGMARR; Peptide with targeting and/or antimicrobial activity) [Peptide 1T-154] | P. gingivalis |
| 1T-94 (DQVAHSGDMLVQARRRDS; Peptide with targeting and/or antimicrobial activity) [Peptide 1T-94] | S. mitis; also recorded: S. mutans; also recorded: S. oralis |
| CHA0 (D[dOrn]KTAA[dOrn]K; not fully specified (bridges)) | P. fluorescens |
| 1T-291 (DMKIIKLYIKILSFLFIKYCNKKLNSVKLKA; Peptide with targeting and/or antimicrobial activity) [Peptide 1T-291] | A. naeslundii; also recorded: F. nucleatum; also recorded: P. gingivalis; also recorded: T. denticola; also recorded: S. mitis; also recorded: S. mutans; also recorded: S. oralis |
| 1T-269 (PLYVAAVEKINTAKKH; Peptide with targeting and/or antimicrobial activity) [Peptide 1T-269] | F. nucleatum; also recorded: S. mutans; also recorded: S. oralis; also recorded: S. sanguinis |
| 1T-114 (RQAPGPGLVTITAACSAPGSRSR; Peptide with targeting and/or antimicrobial activity) [Peptide 1T-114] | A. naeslundii; also recorded: P. gingivalis; also recorded: S. epidermidis; also recorded: S. gordonii; also recorded: S. mitis; also recorded: S. mutans; also recorded: S. oralis; also recorded: S. sanguinis |
| PF-060 (HSSHL; Peptide with targeting and/or antimicrobial activity) | E. coli; also recorded: C. albicans; also recorded: C. jeikeium |
| 1T-259 (EKLKKILLKLAVCGKAWYTL; Peptide with targeting and/or antimicrobial activity) [Peptide 1T-259] | F. nucleatum; also recorded: P. gingivalis; also recorded: T. denticola; also recorded: S. mitis; also recorded: S. mutans; also recorded: S. oralis; also recorded: S. sanguinis |
| 1T-104 (RAVAAHLQGRHHGHQVRRQRHGQR; Peptide with targeting and/or antimicrobial activity) [Peptide 1T-104] | S. mitis |
| 1T-196 (KPEKEKLDTNTLMKVVNKALSLFDRLLIKFGA; Peptide with targeting and/or antimicrobial activity) [Peptide 1T-196] | F. nucleatum; also recorded: S. sanguinis |
| 1T-258 (TINIDDKVLDYLKKINSKAITIDLIGCAS; Peptide with targeting and/or antimicrobial activity) [Peptide 1T-258] | A. naeslundii; also recorded: F. nucleatum; also recorded: P. gingivalis; also recorded: T. denticola; also recorded: S. mitis; also recorded: S. mutans; also recorded: S. oralis |
| 1T-23 (PALVDLSNKEAVWAVLDDHS; Peptide with targeting and/or antimicrobial activity) [Peptide 1T-23] | S. mutans; also recorded: P. aeruginosa |
| PF-014 (HPTDNKHN; Peptide with targeting and/or antimicrobial activity) | E. coli; also recorded: C. jeikeium |
| 1T-105 (GEGLPPPVLHLPPPRMSGR; Peptide with targeting and/or antimicrobial activity) [Peptide 1T-105] | S. epidermidis; also recorded: S. gordonii; also recorded: S. mitis; also recorded: S. mutans; also recorded: S. oralis |
| 1T-218 (KLIFAALGLVFLLIGLRDSRSK; Peptide with targeting and/or antimicrobial activity) [Peptide 1T-218] | F. nucleatum; also recorded: S. sanguinis |

Same assay, conditions: microorganism(s) the targeting peptide binds; binding in aqueous buffers depending on peptide solubility, preferably 1x PBS

| Substance | Target(s) |
| --- | --- |
| PF-138 (AVHHSLLFR; Peptide with targeting and/or antimicrobial activity) | S. epidermidis and M. luteus and P. mirabilis and E. coli and C. albicans and MRSA and C. jeikeium and C. jejuni |
| AIEGVIKKGACFKLLRHEMF [PF-167] | S. epidermidis and E. coli and C. albicans and MRSA and C. jeikeium and C. jejuni |
| PF-246 (QPDEKAEFFDPSLDKVYRHPTFYHIPDGIEHM; Peptide with targeting and/or antimicrobial activity) | S. mutans |
| PF-244 (HMRTISYLLAFAKFSLFIPPKQSLKRL; Peptide with targeting and/or antimicrobial activity) | S. epidermidis; also recorded: M. luteus; also recorded: P. aeruginosa; also recorded: A. baumannii |
| PF-237 (YVKPKVGVHE; Peptide with targeting and/or antimicrobial activity) | S. epidermidis |
| PF-267 (SDDKRTD; Peptide with targeting and/or antimicrobial activity) | M. luteus |

Same assay, conditions: microorganism(s) the targeting peptide binds; peptide binding conducted in aqueous buffers varied by peptide solubility, preferably 1x PBS

| Substance | Target(s) |
| --- | --- |
| PF-510 (WYLYKKQSNQNDRGIPK; Peptide with targeting and/or antimicrobial activity) | S. mutans; also recorded: E. coli |
| PF-570 (KKFPTEESHIQAVLEFKKLTEHPSG; Peptide with targeting and/or antimicrobial activity) | S. pneumoniae; also recorded: C. jeikeium |
| PF-491 (IHQYSSKPDIVGQEAKTVQQINS; Peptide with targeting and/or antimicrobial activity) | S. mutans; also recorded: E. coli |
| PF-506 (SGRGFALIVVLFILLIIVGAACIR; Peptide with targeting and/or antimicrobial activity) | S. mutans; also recorded: E. coli |
| PF-490 (RLILVSGNATVQK; Peptide with targeting and/or antimicrobial activity) | S. mutans; also recorded: E. coli |
| PF-400 (VIAWKFRNKFENSGV; Peptide with targeting and/or antimicrobial activity) | S. epidermidis; also recorded: E. coli; also recorded: S. pneumoniae; also recorded: E. faecalis; also recorded: C. jeikeium |

Same assay, conditions: peptide binding in aqueous buffers varied by peptide solubility; preferably 1x PBS

| Substance | Target(s) (microorganisms bound by the targeting peptide) |
| --- | --- |
| PF-707 (IDPESIVTTNNKQDNVDEQ; Peptide with targeting and/or antimicrobial activity) | S. mutans; also recorded: E. coli |
| PF-641 (SWKCHHLAIGGSWKCHHLAI; Peptide with targeting and/or antimicrobial activity) | S. epidermidis and M. luteus and E. coli and C. albicans and MRSA and E. faecalis and C. jeikeium and C. jejuni |
| PF-S007 (VVAGVVLLTALAVGSKRKEKKQIKEIQRLLAATR; Peptide with targeting and/or antimicrobial activity) | S. epidermidis and MRSA |
| PF670 (TVIVAPMHSGV; Peptide with targeting and/or antimicrobial activity) | Mycobacteria spp |
| PF-C063 (SHFRKGD; Peptide with targeting and/or antimicrobial activity) | A. naeslundii; also recorded: F. nucleatum; also recorded: S. mutans |
| PF-724 (CYRFLTPKRPTRIS; Peptide with targeting and/or antimicrobial activity) | L. pneumophila |
| PF-780 (AVYDALVALAAAEHRAELATRDARAKDTYEKIGVHVVVAA; Peptide with targeting and/or antimicrobial activity) | Mycobacteria spp. |
